Assays:
Experiment in all cases: relative viability (nuclei count vs DMSO), 5 days (fraction); higher = more cells survive
[1] = compound: O=c1[nH]cc(F)c(=O)[nH]1 [5-Fluorouracil] + Cc1nc(NC(=O)N2CCC[C@H]2C(N)=O)sc1-c1ccnc(C(C)(C)C(F)(F)F)c1 [Alpelisib] (partner 2 µM)
Method in brief: (§1)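 After 5 days of treatment, lung cancer cells in 1536-well plates were fixed and stained in a single step (final 0.05% Triton X-100, 1% formaldehyde, 1 ug/ml Hoechst) and their nuclei counted on 4× images. Treatment had been applied by pin tool the day after seeding as one drug alone or as a fixed anchor-drug dose with five library-drug doses (not always all listed) in √10 steps. Relative viability is the nuclei count of treated wells divided by that of vehicle wells, and values are medians of duplicate plates.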

[2] = compound: O=c1[nH]cc(F)c(=O)[nH]1 [5-Fluorouracil] + CC(=O)c1c(C)c2cnc(Nc3ccc(N4CCNCC4)cn3)nc2n(C2CCCC2)c1=O [Palbociclib] (partner 0.5 µM)
Method in brief: as §1

[3] = compound: CN[C@@H]1C[C@H]2O[C@@](C)([C@@H]1OC)n1c3ccccc3c3c4c(c5c6ccccc6n2c5c31)C(=O)NC4 [Staurosporine] + Cc1cc(Nc2cc(N3CCN(C)CC3)nc(Sc3ccc(NC(=O)C4CC4)cc3)n2)n[nH]1 [Tozasertib] (partner 0.1 µM)
Method in brief: as §1

[4] = compound: O=c1[nH]cc(F)c(=O)[nH]1 [5-Fluorouracil] + Nc1ncn([C@H]2C[C@H](O)[C@@H](CO)O2)c(=O)n1 [Decitabine] (partner 2 µM)
Method in brief: as §1

Cell Line | relative viability ([1]; first compound 0.02 µM) | relative viability ([1]; first compound 0.2 µM) | relative viability ([1]; first compound 0.6325 µM) | relative viability ([1]; first compound 2 µM) | relative viability ([2]; first compound 0.02 µM) | relative viability ([2]; first compound 0.2 µM) | relative viability ([2]; first compound 0.6325 µM) | relative viability ([2]; first compound 2 µM) | relative viability ([3]; first compound 0.005 µM) | relative viability ([3]; first compound 0.01581 µM) | relative viability ([3]; first compound 0.05 µM) | relative viability ([3]; first compound 0.1581 µM) | relative viability ([3]; first compound 0.5 µM) | relative viability ([4]; first compound 0.02 µM) | relative viability ([4]; first compound 0.2 µM) | relative viability ([4]; first compound 0.6325 µM) | relative viability ([4]; first compound 2 µM)
NCI-H1666 | 0.823 | 0.442 | 0.35 | 0.306 | 0.677 | 0.642 | 0.647 | 0.609 | 0.544 | 0.44 | 0.402 | 0.355 | 0.257 | 0.706 | 0.564 | 0.534 | 0.502
LOU-NH91 | 0.679 | 0.706 | 0.57 | 0.466 | 0.545 | 0.536 | 0.541 | 0.399 | 0.727 | 0.483 | 0.375 | 0.302 | 0.191 | 0.873 | 0.874 | 0.838 | 0.534
LXF-289 | 1.03 | 0.595 | 0.353 | 0.286 | 0.596 | 0.578 | 0.312 | 0.283 | 0.0996 | 0.072 | 0.0495 | 0.0532 | 0.0507 | 0.384 | 0.402 | 0.34 | 0.323
NCI-H1299 | 1.11 | 1.14 | 0.953 | 0.763 | – | – | – | – | – | – | – | – | – | – | – | – | –
HARA | 0.902 | 0.925 | 0.809 | 0.748 | 0.305 | 0.261 | 0.267 | 0.286 | 0.102 | – | 0.0638 | 0.0719 | 0.0716 | 0.519 | 0.533 | 0.605 | 0.488
LU99A | 0.495 | 0.566 | 0.47 | 0.353 | 0.441 | 0.419 | 0.361 | 0.257 | 0.266 | 0.178 | 0.185 | 0.225 | 0.138 | 0.898 | 0.898 | 0.731 | 0.483
201T | 0.979 | 0.873 | 0.325 | 0.332 | 0.376 | 0.347 | 0.294 | 0.256 | 1.06 | – | 0.758 | 0.373 | 0.31 | 0.885 | 0.559 | 0.3 | 0.257
HCC-827 | 0.777 | 0.888 | 0.681 | 0.451 | 0.46 | 0.455 | 0.231 | 0.255 | 0.442 | 0.313 | 0.358 | 0.329 | 0.263 | 0.298 | 0.431 | 0.36 | 0.297
NCI-H1703 | 0.279 | 0.327 | 0.371 | 0.359 | – | – | – | – | – | – | – | – | – | – | – | – | –
NCI-H1975 | 0.57 | 0.723 | 0.465 | 0.293 | 0.671 | 0.768 | 0.355 | 0.189 | 0.363 | 0.205 | 0.128 | 0.0804 | 0.0788 | 0.449 | 0.381 | 0.28 | 0.206
NCI-H2023 | 0.456 | 0.256 | 0.124 | 0.0987 | 0.397 | 0.155 | 0.0836 | 0.102 | 0.202 | 0.21 | 0.0713 | 0.0971 | 0.0603 | 0.271 | 0.141 | 0.106 | 0.0886
ChaGo-K-1 | – | – | – | – | 0.958 | 0.914 | 0.803 | 0.51 | 0.202 | 0.181 | 0.162 | 0.145 | 0.157 | 0.573 | 0.519 | 0.435 | 0.439
COR-L 105 | 0.725 | 1.11 | 0.874 | 0.449 | 0.4 | 0.438 | 0.44 | 0.427 | 0.253 | 0.26 | 0.245 | 0.237 | 0.229 | 0.763 | 0.677 | 0.719 | 0.438
NCI-H2170 | 0.82 | 0.734 | 0.472 | 0.452 | 0.407 | 0.368 | 0.268 | 0.249 | 0.756 | – | 0.429 | 0.181 | 0.181 | 0.501 | 0.451 | 0.439 | 0.328
A549 | 0.587 | 0.476 | 0.256 | 0.113 | – | – | – | – | – | – | – | – | – | 0.296 | 0.264 | 0.252 | 0.224
NCI-H460 | 0.389 | 0.345 | 0.136 | 0.0626 | 0.236 | 0.167 | 0.046 | 0.045 | 0.698 | 0.113 | 0.304 | 0.0517 | 0.0214 | 0.484 | 0.38 | 0.111 | 0.0586
NCI-H1993 | 0.687 | 0.569 | 0.608 | 0.698 | 0.681 | 1.19 | 0.469 | 0.494 | 0.639 | 0.535 | 0.434 | 0.491 | 0.429 | 0.692 | 0.595 | 0.541 | 0.46
Calu-6 | 1.03 | 0.976 | 0.684 | 0.448 | – | – | – | – | – | – | – | – | – | – | – | – | –

From the supplement of paper PMC10307832
